# Where two headings read alike, the source gives them in different places.
# How the values were obtained:
# [1] = safety and tolerability, Phase 1 study; assay type: in vivo, human
# Protocol: (§1) For Cohorts 1 and 2, the study consisted of a Screening period (Day −28 to −2), an on-site period from Day −1 to Day 16 and a 10-day postdosing follow-up visit (Day 25). Subjects were admitted to the clinic on Day −1 of the assessment period and remained confined to the clinic until completion of the assessment period (or longer if the Investigator deemed it is clinically indicated for safety follow-up). Safety was assessed continuously from signing of informed consent form through follow up visit. Safety assessments including cardiac troponins, vital signs, 12-lead ECGs (electrocardiograms) were performed at screening and daily from Day −1 to Day 16, and follow-up. C-SSRS (Columbia-suicide severity rating scale) was assessed at screening, Days −1, 11, 16, and 25.
# as §1, with “all cohorts,” for “Cohorts 1 and 2,”, “Safety assessments including cardiac troponins, vital signs, 12-lead ECGs (electrocardiograms) were performed at screening and daily from Day −1 to Day 16, and follow-up.” left out
# serum prolactin = serum prolactin pharmacodynamics, Phase 1 study; assay type: in vivo, human
# Protocol: The PD parameters listed in Table 13 were derived for serum prolactin based on actual times and were calculated using noncompartmental analysis (NCA) methods, as data permitted.
# [2] = for CSF AUCtau, geometric mean (geometric CV %) / CSF Cavg, geometric mean (geometric CV %) / CSF Cmax, geometric mean (geometric CV %) / CSF Ctrough, geometric mean (geometric CV %): Day 11
# plasma protein = test: clinical; details: human, oral
# clinical = details: both, human, oral; for Tmax: CSF, CSF Tmax
smiles,measurement,setting,value
"C[C@H]1CN2CCNCc3ccc(C(=O)NCC(F)F)c1c32 [Compound 1, (R)—N-(2,2-difluoroethyl)-7-methyl-1,2,3,4,6,7-hexahydro-[1,4]diazepino[6,7,1-hi]indole-8-carboxamide]",safety and tolerability,[1]; Cohorts 1 and 2,Favorable safety and tolerability results
same,safety and tolerability,[1]; all cohorts,Favorable safety and tolerability results
same,safety and tolerability,"CYP3A4, CYP2D6, P-gp; alone or in combination with other probe substrates",safe and generally well-tolerated
same,"substrate for CYP3A4, CYP2D6 or P-gp","CYP3A4, CYP2D6, P-gp; lack of effect of quinidine on exposure","not a substrate for CYP3A4, CYP2D6, or P-gp"
same,"Serum prolactin AUEC, Change From Baseline, geometric mean","serum prolactin; Day 1, Cohort 1 (3 mg doses)",13.2 ng·h/mL
same,"Serum prolactin AUEC, Raw, geometric mean","serum prolactin; Day 1, Cohort 1 (3 mg doses)",95.0 ng·h/mL
same,"Serum prolactin Emax, Change From Baseline, geometric mean","serum prolactin; Day 1, Cohort 1 (3 mg doses)",6.6 ng/mL
same,"Serum prolactin Emax, Raw, geometric mean","serum prolactin; Day 1, Cohort 1 (3 mg doses)",17.8 ng/mL
same,"Serum prolactin Tmax, Raw, median","serum prolactin; Day 1, Cohort 1 (3 mg doses)",7.84 h
same,"Serum prolactin AUEC, Change From Baseline, geometric mean","serum prolactin; Day 1, Cohort 2 (6 mg doses)",16.3 ng·h/mL
same,"Serum prolactin AUEC, Raw, geometric mean","serum prolactin; Day 1, Cohort 2 (6 mg doses)",82.5 ng·h/mL
same,"Serum prolactin Emax, Change From Baseline, geometric mean","serum prolactin; Day 1, Cohort 2 (6 mg doses)",4.4 ng/mL
same,"Serum prolactin Emax, Raw, geometric mean","serum prolactin; Day 1, Cohort 2 (6 mg doses)",13.9 ng/mL
same,"Serum prolactin Tmax, Raw, median","serum prolactin; Day 1, Cohort 2 (6 mg doses)",2.01 h
same,"Serum prolactin AUEC, Change From Baseline, geometric mean","serum prolactin; Day 1, Cohort 3 (6 mg doses)",15.0 ng·h/mL
same,"Serum prolactin AUEC, Raw, geometric mean","serum prolactin; Day 1, Cohort 3 (6 mg doses)",93.6 ng·h/mL
same,"Serum prolactin Emax, Change From Baseline, geometric mean","serum prolactin; Day 1, Cohort 3 (6 mg doses)",5.8 ng/mL
same,"Serum prolactin Emax, Raw, geometric mean","serum prolactin; Day 1, Cohort 3 (6 mg doses)",16.4 ng/mL
same,"Serum prolactin Tmax, Raw, median","serum prolactin; Day 1, Cohort 3 (6 mg doses)",1.56 h
same,"Serum prolactin AUEC, Change From Baseline, geometric mean","serum prolactin; Day 1, Cohort 4A (6 mg doses)",12.7 ng·h/mL
same,"Serum prolactin AUEC, Raw, geometric mean","serum prolactin; Day 1, Cohort 4A (6 mg doses)",99.6 ng·h/mL
same,"Serum prolactin Emax, Change From Baseline, geometric mean","serum prolactin; Day 1, Cohort 4A (6 mg doses)",9.1 ng/mL
same,"Serum prolactin Emax, Raw, geometric mean","serum prolactin; Day 1, Cohort 4A (6 mg doses)",21.5 ng/mL
same,"Serum prolactin Tmax, Raw, median","serum prolactin; Day 1, Cohort 4A (6 mg doses)",2.01 h
same,"Serum prolactin AUEC, Raw, geometric mean","serum prolactin; Day 1, Cohort 4B (6 mg doses)",80.4 ng·h/mL
same,"Serum prolactin Emax, Change From Baseline, geometric mean","serum prolactin; Day 1, Cohort 4B (6 mg doses)",4.2 ng/mL
same,"Serum prolactin Emax, Raw, geometric mean","serum prolactin; Day 1, Cohort 4B (6 mg doses)",15.6 ng/mL
same,"Serum prolactin Tmax, Raw, median","serum prolactin; Day 1, Cohort 4B (6 mg doses)",0.48 h
same,"Serum prolactin AUEC, Change From Baseline, geometric mean","serum prolactin; Day 10, Cohort 1 (6 mg TID)",20.7 ng·h/mL
same,"Serum prolactin AUEC, Raw, geometric mean","serum prolactin; Day 10, Cohort 1 (6 mg TID)",92.4 ng·h/mL
same,"Serum prolactin Emax, Change From Baseline, geometric mean","serum prolactin; Day 10, Cohort 1 (6 mg TID)",6.0 ng/mL
same,"Serum prolactin Emax, Raw, geometric mean","serum prolactin; Day 10, Cohort 1 (6 mg TID)",16.2 ng/mL
same,"Serum prolactin Tmax, Raw, median","serum prolactin; Day 10, Cohort 1 (6 mg TID)",3.00 h
same,"Serum prolactin AUEC, Change From Baseline, geometric mean","serum prolactin; Day 10, Cohort 2 (12 mg TID)",14.4 ng·h/mL
same,"Serum prolactin AUEC, Raw, geometric mean","serum prolactin; Day 10, Cohort 2 (12 mg TID)",92.0 ng·h/mL
same,"Serum prolactin Emax, Change From Baseline, geometric mean","serum prolactin; Day 10, Cohort 2 (12 mg TID)",5.8 ng/mL
same,"Serum prolactin Emax, Raw, geometric mean","serum prolactin; Day 10, Cohort 2 (12 mg TID)",16.0 ng/mL
same,"Serum prolactin Tmax, Raw, median","serum prolactin; Day 10, Cohort 2 (12 mg TID)",7.84 h
same,"Serum prolactin AUEC, Change From Baseline, geometric mean","serum prolactin; Day 10, Cohort 3 (12 mg BID)",13.5 ng·h/mL
same,"Serum prolactin AUEC, Raw, geometric mean","serum prolactin; Day 10, Cohort 3 (12 mg BID)",99.9 ng·h/mL
same,"Serum prolactin Emax, Change From Baseline, geometric mean","serum prolactin; Day 10, Cohort 3 (12 mg BID)",7.2 ng/mL
same,"Serum prolactin Emax, Raw, geometric mean","serum prolactin; Day 10, Cohort 3 (12 mg BID)",18.2 ng/mL
same,"Serum prolactin Tmax, Raw, median","serum prolactin; Day 10, Cohort 3 (12 mg BID)",1.01 h
same,"Serum prolactin AUEC, Raw, geometric mean","serum prolactin; Day 10, Cohort 4A (15 mg BID)",84.3 ng·h/mL
same,"Serum prolactin Emax, Change From Baseline, geometric mean","serum prolactin; Day 10, Cohort 4A (15 mg BID)",4.7 ng/mL
same,"Serum prolactin Emax, Raw, geometric mean","serum prolactin; Day 10, Cohort 4A (15 mg BID)",14.7 ng/mL
same,"Serum prolactin Tmax, Raw, median","serum prolactin; Day 10, Cohort 4A (15 mg BID)",2.00 h
same,"Serum prolactin AUEC, Change From Baseline, geometric mean","serum prolactin; Day 10, Cohort 4B (18 mg BID)",17.8 ng·h/mL
same,"Serum prolactin AUEC, Raw, geometric mean","serum prolactin; Day 10, Cohort 4B (18 mg BID)",99.4 ng·h/mL
same,"Serum prolactin Emax, Change From Baseline, geometric mean","serum prolactin; Day 10, Cohort 4B (18 mg BID)",8.1 ng/mL
same,"Serum prolactin Emax, Raw, geometric mean","serum prolactin; Day 10, Cohort 4B (18 mg BID)",16.7 ng/mL
same,"Serum prolactin Tmax, Raw, median","serum prolactin; Day 10, Cohort 4B (18 mg BID)",1.10 h
same,CSF concentrations exceeding the relevant Ki for 5-HT2C agonism,[2]; Cohort 2 (12 mg TID) and Cohort 4B (18 mg BID),~2 fold
same,"CSF AUCtau, geometric mean (geometric CV %)",[2]; Cohort 1 (6 mg TID),72.07 (25.7) h*ng/mL
same,"CSF Cavg, geometric mean (geometric CV %)",[2]; Cohort 1 (6 mg TID),9.261 (2.2660) ng/mL
same,"CSF Cmax, geometric mean (geometric CV %)",[2]; Cohort 1 (6 mg TID),11.88 (28.1) ng/mL
same,"CSF Ctrough, geometric mean (geometric CV %)",[2]; Cohort 1 (6 mg TID),6.524 (1.8619) ng/mL
same,"CSF AUCtau, geometric mean (geometric CV %)",[2]; Cohort 2 (12 mg TID),167.4 (60.3) h*ng/mL
same,"CSF Cavg, geometric mean (geometric CV %)",[2]; Cohort 2 (12 mg TID),24.61 (18.535) ng/mL
same,"CSF Cmax, geometric mean (geometric CV %)",[2]; Cohort 2 (12 mg TID),26.21 (57.4) ng/mL
same,"CSF Ctrough, geometric mean (geometric CV %)",[2]; Cohort 2 (12 mg TID),18.69 (12.398) ng/mL
same,"CSF AUCtau, geometric mean (geometric CV %)",[2]; Cohort 3 (12 mg BID),157.9 (34.0) h*ng/mL
same,"CSF Cavg, geometric mean (geometric CV %)",[2]; Cohort 3 (12 mg BID),13.76 (4.0021) ng/mL
same,"CSF Cmax, geometric mean (geometric CV %)",[2]; Cohort 3 (12 mg BID),21.34 (33.5) ng/mL
same,"CSF Ctrough, geometric mean (geometric CV %)",[2]; Cohort 3 (12 mg BID),7.027 (3.2364) ng/mL
same,"CSF AUCtau, geometric mean (geometric CV %)",[2]; Cohort 4A (15 mg BID),171.2 (25.4) h*ng/mL
same,"CSF Cavg, geometric mean (geometric CV %)",[2]; Cohort 4A (15 mg BID),14.63 (3.7448) ng/mL
same,"CSF Cmax, geometric mean (geometric CV %)",[2]; Cohort 4A (15 mg BID),24.27 (32.3) ng/mL
same,"CSF Ctrough, geometric mean (geometric CV %)",[2]; Cohort 4A (15 mg BID),6.512 (1.3508) ng/mL
same,"CSF AUCtau, geometric mean (geometric CV %)",[2]; Cohort 4B (18 mg BID),202.5 (30.1) h*ng/mL
same,"CSF Cavg, geometric mean (geometric CV %)",[2]; Cohort 4B (18 mg BID),17.51 (5.7327) ng/mL
same,"CSF Cmax, geometric mean (geometric CV %)",[2]; Cohort 4B (18 mg BID),30.05 (20.9) ng/mL
same,"CSF Ctrough, geometric mean (geometric CV %)",[2]; Cohort 4B (18 mg BID),7.700 (3.5802) ng/mL
same,fraction unbound at 11 day,"plasma protein; 6 mg, Day 11, Cohort 1 (6 mg TID)",0.969
same,fraction unbound at 11 day,"plasma protein; 12 mg, Day 11, Cohort 2 (12 mg TID)",0.968
same,fraction unbound at 11 day,"plasma protein; 12 mg, Day 11, Cohort 3 (12 mg BID)",0.93
same,fraction unbound at 11 day,"plasma protein; 15 mg, Day 11, Cohort 4A (15 mg BID)",0.913
same,fraction unbound at 11 day,"plasma protein; 18 mg, Day 11, Cohort 4B (18 mg BID)",0.926
same,Kp,"clinical; CSF / free (unbound) plasma, CSF/P Cmax ratio, across all cohorts",0.663 to 0.764
same,Kp,"clinical; CSF / free (unbound) plasma, CSF/P Ctrough ratio, across all cohorts",1.26 to 1.92
same,Kp,"clinical; CSF / free drug in plasma, 6 mg, CSF/P Ctrough, mean (SD), CSF to free drug plasma ratio, Day 11, Cohort 1 (6 mg TID)",1.26
same,Kp,"clinical; CSF / free drug in plasma, 12 mg, CSF/P Ctrough, mean (SD), CSF to free drug plasma ratio, Day 11, Cohort 2 (12 mg TID)",1.31
same,Kp,"clinical; CSF / free drug in plasma, 12 mg, CSF/P Ctrough, mean (SD), CSF to free drug plasma ratio, Day 11, Cohort 3 (12 mg BID)",1.92
same,Kp,"clinical; CSF / free drug in plasma, 15 mg, CSF/P Ctrough, mean (SD), CSF to free drug plasma ratio, Day 11, Cohort 4A (15 mg BID)",1.48
same,Kp,"clinical; CSF / free drug in plasma, 18 mg, CSF/P Ctrough, mean (SD), CSF to free drug plasma ratio, Day 11, Cohort 4B (18 mg BID)",1.69
same,Tmax,"clinical; 6 mg, median (minimum, maximum), Day 11, Cohort 1 (6 mg TID)",2.52 h
same,Tmax,"clinical; 12 mg, median (minimum, maximum), Day 11, Cohort 2 (12 mg TID)",3.04 h
same,Tmax,"clinical; 12 mg, median (minimum, maximum), Day 11, Cohort 3 (12 mg BID)",2.53 h
same,Tmax,"clinical; 15 mg, median (minimum, maximum), Day 11, Cohort 4A (15 mg BID)",3.02 h
same,Tmax,"clinical; 18 mg, median (minimum, maximum), Day 11, Cohort 4B (18 mg BID)",3.06 h
same,Tmax,"clinical; Day 11, across cohorts",2.52 to 3.06 h

# — US20240216392A1, “METHODS OF TREAMENT” (Arena Pharmaceuticals, Inc., priority 2022, published 2024)
